Results from patent publication US20240285615A1, “MEDICAMENTS COMPRISING GLYCOSIDASE INHIBITORS” (priority 2021, published 2024).
Where two headings read alike, the source gives them in different places.

Assays:
[1] = test system: transgenic mice (Line 61) overexpressing wildtype human alpha-synuclein; assay: In vivo treatment efficacy on Parkinson disease (PD) model (Line 61); details: Line 61 mice, daily oral gavage for 24 weeks
Source text: The transgenic mice (Line 61) which overexpresses wildtype human alpha-synuclein protein (hAsyn) under the regulatory control of the murine Thy-1 promoter is a widely used Parkinson disease (PD) animal model. […] In addition, motor deficits such as lack of coordination, diminution of strength, and unbalance are also observed from 2 to 4 months of age (Fleming et al. 2004, J Neurosci 24 (42): 9434-40). Treatment effect of compound of formula (I) is based on the assessment of the behaviour (motoric performance), as well as the quantification of aggregated hAsyn and pser129-Asyn deposits by histology and by the biochemical determination of aggregated hAsyn present in the brain “insoluble fraction” of treated animals.
For this, transgenic Line 61 mice (4 weeks of age) and age/sex-matched non-transgenic littermates are first tested in the Irwin testing battery test, rotarod, wire suspension, beam walk and pasta gnawing test at baseline. […] Right hemibrains are embedded in OCT medium and 10 μm cryosections are collected to quantify the level of hAsyn and pser129-Asyn deposits by immunohistochemistry in the hippocampus and in the cortex of treated animals. […]

[2] = Phase 1 Part 1a: single rising oral doses, fasted, plasma pharmacokinetics; assay type: in vivo, human; details: for AUC(0-inf) / Cmax / Tmax / half-life: human, plasma
Source text: A Randomized, Double-Blind, Placebo-Controlled, Phase 1 Study to Assess the Safety, Tolerability, Pharmacokinetics and Food Effect of Single and Multiple Doses of Orally Administered Compound of Formula (I) in Healthy Adult and Elderly Subjects The study was a single-centre, randomized, placebo-controlled single- and multiple ascending dose study in healthy male and female (no childbearing potential) volunteers aged 18-80 years. Study objectives were safety, tolerability, food effect and pharmacokinetics. Following identification of safe and tolerable single doses in healthy male subjects aged 18-55 years, separate cohorts were dosed to assess food effect. Furthermore, multiple-dose safety, tolerability, pharmacokinetics, CSF drug levels and pharmacodynamics were assessed in elderly (age 55-80 years) male or healthy non-child-bearing potential female volunteers. [table] The single-dose pharmacokinetics of seven, ascending, dose levels of compound of Formula (I) (20, 40, 80, 160, 300, 600 and 1000 mg of compound (I) fasted state) were evaluated in part 1a of a randomized, placebo-controlled, time lagged, parallel/crossover group study in healthy young volunteers Compound (I) pharmacokinetic data were measured in plasma and in urine up to 72 hours post dose.

[3] = single oral dose 20 mg, fasted, healthy male subjects, arithmetic mean
[4] = single oral dose 40 mg, fasted, healthy male subjects, arithmetic mean
[5] = single oral dose 80 mg, fasted, healthy male subjects, arithmetic mean
[6] = single oral dose 160 mg, fasted, healthy male subjects, arithmetic mean
[7] = single oral dose 300 mg, fasted, healthy male subjects, arithmetic mean
[8] = single oral dose 600 mg, fasted, healthy male subjects, arithmetic mean
[9] = single oral dose 1000 mg, fasted, healthy male subjects, arithmetic mean

CC(=O)Nc1nnc(N2CCN([C@@H](C)c3ccc4c(c3)OCO4)CC2)s1 [Compound (I)]
behavioural tests (Irwin battery, rotarod, wire suspension, beam walk, pasta gnawing) [1]: functional benefit (motor improvement)
intraneuronal aggregated pser129-Asyn deposits by histology [1]: reduction of the number of intraneuronal aggregated pser129-Asyn deposits
deviation of dose normalized AUC ([2]; AUC over 24 hours, dose levels 300, 600 and 1000 mg): ≤ 10%
AUC(0-inf) [2, 3]: 473 ng·h/mL
Cmax [2, 3]: 227 ng/mL
Tmax ([2]; single oral dose 20 mg, fasted, healthy male subjects, median (min, max), read-out: Tmax): 0.5 h
AUC(0-inf) [2, 4]: 1160 ng·h/mL
Cmax [2, 4]: 468 ng/mL
Tmax ([2]; single oral dose 40 mg, fasted, healthy male subjects, median (min, max), read-out: Tmax): 1 h
AUC(0-inf) [2, 5]: 3270 ng·h/mL
Cmax [2, 5]: 1370 ng/mL
Tmax ([2]; single oral dose 80 mg, fasted, healthy male subjects, median (min, max), read-out: Tmax): 0.5 h
AUC(0-inf) [2, 6]: 7010 ng·h/mL
Cmax [2, 6]: 1880 ng/mL
Tmax ([2]; single oral dose 160 mg, fasted, healthy male subjects, median (min, max), read-out: Tmax): 1.5 h
AUC(0-inf) [2, 7]: 15400 ng·h/mL
Cmax [2, 7]: 3990 ng/mL
Tmax ([2]; single oral dose 300 mg, fasted, healthy male subjects, median (min, max), read-out: Tmax): 1.25 h
AUC(0-inf) [2, 8]: 33300 ng·h/mL
Cmax [2, 8]: 7180 ng/mL
Tmax ([2]; single oral dose 600 mg, fasted, healthy male subjects, median (min, max), read-out: Tmax): 1.25 h
AUC(0-inf) [2, 9]: 50200 ng·h/mL
Cmax [2, 9]: 10100 ng/mL
Tmax ([2]; single oral dose 1000 mg, fasted, healthy male subjects, median (min, max), read-out: Tmax): 1.5 h
half-life ([2]; male, oral, single dose 20 to 1000 mg, read-out: terminal half-life (t½), range of means at the different dose levels): 3.9 to 10.7 h
half-life ([2]; male, oral, single dose 20 mg to 1000 mg, read-out: mean terminal half-life, range over the 7 dose levels): 4.59 to 8.84 h
Tmax ([2]; male, oral, single dose 20 mg to 1000 mg, read-out: median Tmax, range over dose levels): 0.5 to 1.5 h
half-life ([2]; male, po, 20 mg, single oral dose 20 mg, fasted, healthy male subjects, arithmetic mean, read-out: t1/2 (converted)): 4.59 h
half-life ([2]; male, po, 40 mg, single oral dose 40 mg, fasted, healthy male subjects, arithmetic mean, read-out: t1/2 (converted)): 5.95 h
half-life ([2]; male, po, 80 mg, single oral dose 80 mg, fasted, healthy male subjects, arithmetic mean, read-out: t1/2 (converted)): 8.84 h
half-life ([2]; male, po, 160 mg, single oral dose 160 mg, fasted, healthy male subjects, arithmetic mean, read-out: t1/2 (converted)): 6.83 h
half-life ([2]; male, po, 300 mg, single oral dose 300 mg, fasted, healthy male subjects, arithmetic mean, read-out: t1/2 (converted)): 7.95 h
half-life ([2]; male, po, 600 mg, single oral dose 600 mg, fasted, healthy male subjects, arithmetic mean, read-out: t1/2 (converted)): 6.07 h
half-life ([2]; male, po, 1000 mg, single oral dose 1000 mg, fasted, healthy male subjects, arithmetic mean, read-out: t1/2 (converted)): 6.6 h
dose proportionality of Cmax ([2]; single dose, dosing range 20 mg to 1000 mg): Dose proportionality was observed
dose proportionality of AUCs ([2]; single dose, dosing range 300 mg to 1000 mg): Dose proportionality was observed
